Data published in PubChem BioAssay (NCI).
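Briefly, cells in 96-well plates were exposed to five compound concentrations for 48 h, and endpoints were estimated by linear interpolation. TGI denotes the concentration required for complete inhibition of growth.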

Legend:
Experiment in all cases: NCI anticancer screen, dose series, 48 h
HOP-92 NSCLC = tested on: HOP-92 NSCLC
NCI/ADR-RES ovarian = tested on: NCI/ADR-RES ovarian
T-47D breast = tested on: T-47D breast
NCI-H23 lung = tested on: NCI-H23 lung
MCF7 breast = tested on: MCF7 breast
HOP-62 NSCLC = tested on: HOP-62 NSCLC
CCRF-CEM leukemia = tested on: CCRF-CEM leukemia
HT29 colon = tested on: HT29 colon
U251 CNS = tested on: U251 CNS
OVCAR-5 ovarian = tested on: OVCAR-5 ovarian
COLO 205 colon = tested on: COLO 205 colon
HL-60(TB) leukemia = tested on: HL-60(TB) leukemia
OVCAR-8 ovarian = tested on: OVCAR-8 ovarian
786-0 renal = tested on: 786-0 renal
RPMI-8226 leukemia = tested on: RPMI-8226 leukemia
MOLT-4 leukemia = tested on: MOLT-4 leukemia
HCT-15 colon = tested on: HCT-15 colon
SK-MEL-28 melanoma = tested on: SK-MEL-28 melanoma
SNB-19 CNS = tested on: SNB-19 CNS
HCC-2998 colon = tested on: HCC-2998 colon
KM12 colon = tested on: KM12 colon
SNB-75 CNS = tested on: SNB-75 CNS
CAKI-1 renal = tested on: CAKI-1 renal
TK-10 renal = tested on: TK-10 renal
EKVX NSCLC = tested on: EKVX NSCLC
A498 renal = tested on: A498 renal
HCT-116 colon = tested on: HCT-116 colon
BT-549 breast = tested on: BT-549 breast
MDA-MB-231 breast = tested on: MDA-MB-231 breast
MALME-3M melanoma = tested on: MALME-3M melanoma
RXF 393 renal = tested on: RXF 393 renal
UACC-62 melanoma = tested on: UACC-62 melanoma
IGROV1 ovarian = tested on: IGROV1 ovarian
UO-31 renal = tested on: UO-31 renal
OVCAR-4 ovarian = tested on: OVCAR-4 ovarian
UACC-257 melanoma = tested on: UACC-257 melanoma
SN12C renal = tested on: SN12C renal
SK-MEL-2 melanoma = tested on: SK-MEL-2 melanoma
SR leukemia = tested on: SR leukemia
MDA-MB-435 = tested on: MDA-MB-435
NCI-H226 lung = tested on: NCI-H226 lung
ACHN renal = tested on: ACHN renal
HS 578T breast = tested on: HS 578T breast
SW-620 colon = tested on: SW-620 colon
PC-3 prostate = tested on: PC-3 prostate
A549 NSCLC = tested on: A549 NSCLC
SF-539 CNS = tested on: SF-539 CNS
LOX IMVI melanoma = tested on: LOX IMVI melanoma
DU-145 prostate = tested on: DU-145 prostate
SF-295 CNS = tested on: SF-295 CNS
M14 melanoma = tested on: M14 melanoma
SK-OV-3 ovarian = tested on: SK-OV-3 ovarian
MDA-N = tested on: MDA-N
SF-268 CNS = tested on: SF-268 CNS
NCI-H460 lung = tested on: NCI-H460 lung
OVCAR-3 ovarian = tested on: OVCAR-3 ovarian
SK-MEL-5 melanoma = tested on: SK-MEL-5 melanoma
NCI-H522 lung = tested on: NCI-H522 lung
K-562 leukemia = tested on: K-562 leukemia

## CCOC(=O)C(NC(=O)c1cccc(Cl)c1)(N1CCN(c2cc3c(cc2F)c(=O)c(C(=O)O)cn3CC)CC1)C(F)(F)F (stereo not drawn)
HOP-92 NSCLC
  TGI: 33.4 µM
NCI/ADR-RES ovarian
  TGI: > 100 µM
T-47D breast
  TGI: 51.4 µM
NCI-H23 lung
  TGI: 42 µM
MCF7 breast
  TGI: 37.2 µM
HOP-62 NSCLC
  TGI: 36.6 µM
CCRF-CEM leukemia
  TGI: 10.7 µM
HT29 colon
  TGI: 42.5 µM
U251 CNS
  TGI: 20.9 µM
OVCAR-5 ovarian
  TGI: 33 µM
COLO 205 colon
  TGI: 32 µM
HL-60(TB) leukemia
  TGI: 20.1 µM
OVCAR-8 ovarian
  TGI: 46.7 µM
786-0 renal
  TGI: 30.9 µM
RPMI-8226 leukemia
  TGI: 62.8 µM
MOLT-4 leukemia
  TGI: 19.3 µM
HCT-15 colon
  TGI: 38.2 µM
SK-MEL-28 melanoma
  TGI: 33.9 µM
SNB-19 CNS
  TGI: > 100 µM
HCC-2998 colon
  TGI: 27.5 µM
KM12 colon
  TGI: 25.2 µM
SNB-75 CNS
  TGI: 61.2 µM
CAKI-1 renal
  TGI: 60.9 µM
TK-10 renal
  TGI: 56.6 µM
EKVX NSCLC
  TGI: 68.3 µM
A498 renal
  TGI: 51 µM
HCT-116 colon
  TGI: 27.6 µM
BT-549 breast
  TGI: 43.7 µM
MDA-MB-231 breast
  TGI: 36.3 µM
MALME-3M melanoma
  TGI: 32.4 µM
RXF 393 renal
  TGI: 39.4 µM
UACC-62 melanoma
  TGI: 32.4 µM
IGROV1 ovarian
  TGI: 47.6 µM
UO-31 renal
  TGI: 46.6 µM
OVCAR-4 ovarian
  TGI: 53 µM
UACC-257 melanoma
  TGI: 54.9 µM
SN12C renal
  TGI: 70.9 µM
SK-MEL-2 melanoma
  TGI: 31.1 µM
SR leukemia
  TGI: 52.2 µM
MDA-MB-435
  TGI: 28 µM
NCI-H226 lung
  TGI: 40.1 µM
ACHN renal
  TGI: 32.9 µM
HS 578T breast
  TGI: 44.8 µM
SW-620 colon
  TGI: 29.4 µM
PC-3 prostate
  TGI: 35.1 µM
A549 NSCLC
  TGI: 64.2 µM
SF-539 CNS
  TGI: 30.2 µM
LOX IMVI melanoma
  TGI: 48.7 µM
DU-145 prostate
  TGI: 88.3 µM
SF-295 CNS
  TGI: 40 µM
M14 melanoma
  TGI: 31.9 µM
SK-OV-3 ovarian
  TGI: 64.2 µM
MDA-N
  TGI: 28.2 µM
SF-268 CNS
  TGI: 35.3 µM
NCI-H460 lung
  TGI: 81.2 µM
OVCAR-3 ovarian
  TGI: 38.2 µM
SK-MEL-5 melanoma
  TGI: 27.2 µM
NCI-H522 lung
  TGI: 16.4 µM
K-562 leukemia
  TGI: 52 µM

## O=C(NCc1ccc(Cl)c(Cl)c1)c1nc2ccccc2nc1NCc1ccc(Cl)c(Cl)c1
HOP-92 NSCLC
  TGI: > 100 µM
NCI/ADR-RES ovarian
  TGI: > 100 µM
T-47D breast
  TGI: > 100 µM
NCI-H23 lung
  TGI: > 100 µM
MCF7 breast
  TGI: > 100 µM
HOP-62 NSCLC
  TGI: > 100 µM
CCRF-CEM leukemia
  TGI: > 100 µM
HT29 colon
  TGI: > 100 µM
U251 CNS
  TGI: > 100 µM
OVCAR-5 ovarian
  TGI: > 100 µM
COLO 205 colon
  TGI: > 100 µM
HL-60(TB) leukemia
  TGI: > 100 µM
OVCAR-8 ovarian
  TGI: > 100 µM
786-0 renal
  TGI: > 100 µM
HCT-15 colon
  TGI: > 100 µM
SK-MEL-28 melanoma
  TGI: > 100 µM
SNB-19 CNS
  TGI: > 100 µM
HCC-2998 colon
  TGI: > 100 µM
KM12 colon
  TGI: > 100 µM
SNB-75 CNS
  TGI: > 100 µM
CAKI-1 renal
  TGI: > 100 µM
TK-10 renal
  TGI: > 100 µM
EKVX NSCLC
  TGI: > 100 µM
A498 renal
  TGI: > 100 µM
HCT-116 colon
  TGI: > 100 µM
BT-549 breast
  TGI: > 100 µM
MDA-MB-231 breast
  TGI: > 100 µM
RXF 393 renal
  TGI: > 100 µM
UACC-62 melanoma
  TGI: > 100 µM
IGROV1 ovarian
  TGI: > 100 µM
UO-31 renal
  TGI: > 100 µM
UACC-257 melanoma
  TGI: > 100 µM
SN12C renal
  TGI: > 100 µM
SK-MEL-2 melanoma
  TGI: > 100 µM
SR leukemia
  TGI: > 100 µM
MDA-MB-435
  TGI: > 100 µM
NCI-H226 lung
  TGI: > 100 µM
ACHN renal
  TGI: > 100 µM
HS 578T breast
  TGI: > 100 µM
SW-620 colon
  TGI: > 100 µM
PC-3 prostate
  TGI: > 100 µM
A549 NSCLC
  TGI: > 100 µM
SF-539 CNS
  TGI: > 100 µM
LOX IMVI melanoma
  TGI: > 100 µM
DU-145 prostate
  TGI: > 100 µM
SF-295 CNS
  TGI: > 100 µM
M14 melanoma
  TGI: > 100 µM
MDA-N
  TGI: > 100 µM
SF-268 CNS
  TGI: > 100 µM
NCI-H460 lung
  TGI: > 100 µM
OVCAR-3 ovarian
  TGI: > 100 µM
SK-MEL-5 melanoma
  TGI: > 100 µM
NCI-H522 lung
  TGI: > 100 µM
K-562 leukemia
  TGI: > 100 µM
